Values of other authors in patent US8759352B2, “1-(4-ureidobenzoyl)piperazine derivatives” (Merck Sharp & Dohme B.V., priority 2008, dated 2014).

What was measured:
[1] = tested on: tumours; conditions: animal model of prostate cancer; Chuu et al. 2006
[2] = tested on: vascular smooth muscle cell; conditions: in vitro and in vivo; Blaschke et al. 2004
[3] = tested on: β-amyloid; conditions: Riddell et al. 2007
[4] = tested on: neointima formation; conditions: in vitro and in vivo; Blaschke et al. 2004

Structure (SMILES): O=S(=O)(c1ccccc1)N(CC(F)(F)F)c1ccc(C(O)(C(F)(F)F)C(F)(F)F)cc1 [Example T0901317]
- progression of tumours [1]: delayed progression of tumours
- vascular smooth muscle cell proliferation [2]: inhibit
- deposition of β-amyloid [3]: lower deposition of β-amyloid
- memory [3]: improve memory
- neointima formation following balloon injury [4]: inhibit
